Measured values taken from US11076595B2, “1-(n,n-disubstituted carbamoyl) 4-(substituted sulfonyl)triazolin-5-one derivative, 4-(n,n-disubstituted carbamoyl) 1-(substituted sulfonyl)triazolin-5-one derivative, and herbicide containing said derivative as active ingredient” (HOKKO CHEMICAL INDUSTRY CO., LTD., priority 2017, dated 2021).

What was measured:
Type in all cases: in vivo
Echinochloa crus-galli [1] = assay: Test Example 12: herbicidal effect test by treatment during growing period in paddy field; settings: 120 g/10a; treatment seven days after sowing in flooded paddy pot; assessed 14 days after treatment
In short: (§1)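 Read-out: weed suppression (%) = (1 − treated/untreated mean dry weight) × 100, scored 14 days after treatment with two replications. Pots held puddled paddy soil, 30 seeds per species sown 0–1 cm, flooded ~3 cm. Post-emergence dropwise water application at 7 days after sowing, 120 g a.i./10 are.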

Scirpus juncoides [2] = assay: as above; settings: 120 g/10a; treatment seven days after sowing in flooded paddy pot; assessed 14 days after treatment
In short: as §1

Lindernia pyxidaria [3] = assay: as above; settings: 120 g/10a; treatment seven days after sowing in flooded paddy pot; assessed 14 days after treatment
In short: as §1

Monochoria vaginalis [4] = assay: as above; settings: 120 g/10a; treatment seven days after sowing in flooded paddy pot; assessed 14 days after treatment
In short: as §1

crabgrass [5] = assay: Test Example 13: herbicidal effect test by soil treatment in upland field; settings: 120 g/10a, 14 days after treatment
Protocol: (§2) A pot having a size of 36 cm^2 was filled with field soil (alluvial soil) and after mixing the soil of the surface layer of 1 cm with 20 grains of each weed seed of crabgrass, Echinochloa crus-galli, Chenopodium album and Amaranthus viridis, the surface layer was pressed lightly. One day after the sowing, an emulsifiable concentrate prepared according to Formulation Example 15 by using the compound shown in Table 11 below was diluted with water, and the water-diluted formulation was sprayed on the soil surface at a ratio of 100 liter per 10 are. The application rate of the active ingredient, by conversion, corresponded to 120 g per 10 are. Fourteen Days after the formulation treatment, the herbicidal effect was evaluated by the same criteria as in Test Example 11.

Amaranthus viridis [6] = assay: as above; settings: 120 g/10a, 14 days after treatment
Protocol: as §2

Echinochloa crus-galli [7] = assay: as above; settings: 120 g/10a, 14 days after treatment
Protocol: as §2

Chenopodium album [8] = assay: as above; settings: 120 g/10a, 14 days after treatment
Protocol: as §2

crabgrass [9] = assay: Test Example 14: herbicidal effect test by foliage treatment in upland field; settings: 7 days after sowing, 120 g/10a, 14 days after treatment
In short: (§3)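 Dose: 120 g a.i. per 10 are, sprayed in 100 L water per 10 are onto pots seven days post-sowing in alluvial soil. After 14 days, weed dry weight relative to untreated plots gave suppression rate (%); duplicate plots per concentration.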

Chenopodium album [10] = assay: as above; settings: 7 days after sowing, 120 g/10a, 14 days after treatment
In short: as §3

Echinochloa crus-galli [11] = assay: Test Example 11: herbicidal effect test by soil treatment in paddy field; settings: 120 g/10a active ingredient, 14 days after treatment
In short: (§4)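 Puddled paddy soil with N:P:K 17:17:17 fertilizer in Wagner pots; 30 seeds per species sown at 0–1 cm, flooded to about 3 cm, kept in a glass greenhouse. Water-diluted emulsifiable concentrate dripped in immediately after sowing at 120 g a.i. per 10 are. Suppression from dry weight versus untreated at 14 days.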

Scirpus juncoides [12] = assay: as above; settings: 120 g/10a active ingredient, 14 days after treatment
In short: as §4

Lindernia pyxidaria [13] = assay: as above; settings: 120 g/10a active ingredient, 14 days after treatment
In short: as §4

Monochoria vaginalis [14] = assay: as above; settings: 120 g/10a active ingredient, 14 days after treatment
In short: as §4

Amaranthus viridis [15] = assay: Test Example 14: herbicidal effect test by foliage treatment in upland field; settings: 7 days after sowing, 120 g/10a, 14 days after treatment
In short: as §3

Echinochloa crus-galli [16] = assay: as above; settings: 7 days after sowing, 120 g/10a, 14 days after treatment
In short: as §3

Row | Compound | Weed suppression rate (%) Echinochloa crus-galli (Echinochloa crus-galli [1]) | Weed suppression rate (%) Scirpus juncoides (Scirpus juncoides [2]) | Weed suppression rate (%) Lindemia pyxidaria (Lindernia pyxidaria [3]) | Weed suppression rate (%) Monochoria vaginalis (Monochoria vaginalis [4]) | herbicidal effect, Crabgrass (crabgrass [5]) | herbicidal effect, Amaranthus viridis (Amaranthus viridis [6]) | herbicidal effect, Echinochloa crus-galli (Echinochloa crus-galli [7]) | herbicidal effect, Chenopodium album (Chenopodium album [8]) | herbicidal effect, Crabgrass (crabgrass [9]) | herbicidal effect, Chenopodium album (Chenopodium album [10]) | Weed suppression rate (%) Echinochloa crus-galli (Echinochloa crus-galli [11]) | Weed suppression rate (%) Scirpus juncoides (Scirpus juncoides [12]) | Weed suppression rate (%) Lindemia pyxidaria (Lindernia pyxidaria [13]) | Weed suppression rate (%) Monochoria vaginalis (Monochoria vaginalis [14]) | herbicidal effect, Amaranthus viridis (Amaranthus viridis [15]) | herbicidal effect, Echinochloa crus-galli (Echinochloa crus-galli [16])
1 | CC(C)N(C(=O)n1cnn(S(=O)(=O)C(C)C)c1=O)c1c(F)c(F)cc(F)c1F [Compound 11-64] | 100% | 100% | 80% | 90% | 100% | 60% | 100% | 60% | 100% | 60% | 100% | 100% | 100% | 90% | 60% | 90%
2 | CC(C)N(C(=O)n1cnn(S(=O)(=O)c2ccccc2)c1=O)c1ccc(F)cc1F [Compound 11-367] | 100% | 90% | 90% | 90% | 100% | 40% | 100% | 40% | 90% | 40% | 100% | 90% | 100% | 90% | 40% | 90%
3 | CC(C)N(C(=O)n1cnn(S(=O)(=O)C(C)C)c1=O)c1ncc(Cl)cc1Cl [Compound 11-86] | 90% | 90% | 90% | 90% | 90% | 90% | 80% | 80% | 90% | 80% | 90% | 90% | 80% | 80% | 90% | 80%
4 | CC(C)N(C(=O)n1cnn(S(=O)(=O)c2c(F)c(F)c(F)c(F)c2F)c1=O)c1ccccc1 [Compound 11-800] | 90% | 90% | 60% | 90% | 90% | 70% | 60% | 70% | 90% | 100% | 90% | 90% | 90% | 80% | 100% | 90%
5 | CC(C)N(C(=O)n1cnn(S(=O)(=O)N(C)C)c1=O)c1ccc(F)cc1Cl [Compound 11-1071] | 90% | 90% | 80% | 80% | 90% | 90% | 80% | 80% | 90% | 80% | 90% | 90% | 80% | 80% | 90% | 80%
